Drawing on article PMC12519464, “Dual-Site Inhibition of SARS-CoV‑2 RNA-Dependent RNA Polymerase by Small Molecules Able to Block Viral Replication Identified through a Computer-Aided Drug Discovery Approach” (ACS Infectious Diseases, 2025), this text covers IC50 for 42 compounds.

This assay deals with SARS-CoV-2 nsp12/7/8 (RTC) complex (Severe acute respiratory syndrome coronavirus 2, UniProt P0DTD1). Briefly: biochemical. In kind it is biochemical.
Where [1] appears, read: read-out: IC50: compound concentration required to inhibit by 50% the SARS-CoV-2 RTC enzymatic activity.
Where [2] appears, read: primer-extension PAGE assay, 150 nM RTC, 5% DMSO, 30 min preincubation at 37 °C, mean and SD of at least 3 independent experiments.

Where two headings read alike, the source gives them in different places.

Turning to `CC(C)(O)[C@@H]1CC[C@](C)([C@H]2[C@@H](O)C[C@@]3(C)[C@@H]4C[C@H](O)[C@H]5C(C)(C)[C@@H](O)CC[C@@]56C[C@@]46CC[C@]23C)O1` [Cycloastragenol], under setting [1], the IC50 was greater than 100 µM.
Turning to `C=C(C)[C@@H]1CC[C@]2(C)CC[C@]3(C)[C@H](CC[C@@H]4[C@@]5(C)CC[C@H](O)C(C)(C)[C@@H]5CC[C@]43C)[C@@H]12` [Lupeol], the IC50 was greater than 100 µM.
For the compound `CC1(C)[C@@H](OC(=O)CCC(=O)O)CC[C@]2(C)[C@H]3C(=O)C=C4[C@@H]5C[C@@](C)(C(=O)O)CC[C@]5(C)CC[C@@]4(C)[C@]3(C)CC[C@@H]12` [Carbenoxolone, reference compound], the IC50 was found to be 55.8 ± 8.66 µM.
`Oc1cccc(-c2c3nc(c(-c4cccc(O)c4)c4ccc([nH]4)c(-c4cccc(O)c4)c4nc(c(-c5cccc(O)c5)c5ccc2[nH]5)CC4)C=C3)c1` [Temoporfin, reference compound]: the IC50 was greater than 100 µM.
Compound `CC1(C)CC[C@]2(C(=O)O)CC[C@]3(C)C(=CC[C@@H]4[C@@]5(C)C[C@@H](O)[C@H](O)C(C)(C)[C@@H]5CC[C@]43C)[C@@H]2C1` [Maslinic Acid] gave an IC50 greater than 100 µM.
On the same count and under the same terms, for `CN(C(=O)c1ccc(F)cc1C(F)(F)F)C1CCN(c2nnc(-c3ccnn3C)c3ccccc23)CC1` [Taladegib, reference compound] the value was greater than 100 µM; for `CC(C)C1=CC(=O)[C@](C)([C@H]2[C@H](O)C[C@@]3(C)[C@@H]4CC=C5[C@@H](CC[C@@H](O[C@@H]6OC[C@@H](O)[C@H](O)[C@H]6O[C@@H]6O[C@@H](C)[C@H](O)[C@@H](O)[C@H]6O)C5(C)C)[C@]4(C)C(=O)C[C@]23C)O1` (racemic) [Picfeltarracemin Ia], greater than 100 µM.
As for `O=C(Nc1nc(-c2cc(Cl)cs2)c(N2CCN(C3CCCCC3)CC2)s1)c1cnc(N2CCC(C(=O)O)CC2)c(Cl)c1` [Avatrombopag, reference compound], the IC50 under setting [2] is 27.2 ± 7.35 µM.
As for `CC(C)=CCc1c(O)ccc(C(=O)[C@@H]2[C@@H](c3c(O)cc(O)c4c(=O)c(CC=C(C)C)c(-c5ccc(O)cc5O)oc34)C=C(C)C[C@H]2c2ccc(O)cc2O)c1O` [Kuwanon H], the IC50 under setting [1] came to 66.2 ± 1.81 µM.
Consider `CCOC(=O)N[C@@H]1CC[C@@H]2[C@@H](C1)C[C@H]1C(=O)O[C@H](C)[C@H]1[C@H]2/C=C/c1ccc(-c2cccc(F)c2)cn1` [Vorapaxar, reference compound], for which the IC50 was greater than 100 µM.
As to `CN1C(=O)c2c(nn(Cc3ccc(-c4cccc(F)n4)cc3)c2Nc2ccccc2)N2C1=N[C@@H]1CCC[C@@H]12` [Lenrispodun, reference compound], the IC50 under setting [2] came out at 24.2 ± 8.68 µM.
`CNc1cccc(NC(=O)N[C@@H]2N=C(c3ccccn3)c3ccccc3N(CC(=O)C(C)(C)C)C2=O)c1` [Sograzepide, reference compound]: the IC50 under setting [2] is greater than 100 µM.
Same read-out and setting: in the case of `C[C@@H]1CC[C@@]2(OC1)O[C@H]1C[C@H]3[C@@H]4CC=C5C[C@@H](O[C@@H]6O[C@H](CO)[C@@H](O)[C@H](O)[C@H]6O)CC[C@]5(C)[C@H]4CC[C@]3(C)[C@H]1[C@@H]2C` [Disogluside] it was greater than 100 µM.
`C[C@]12C=CC(=O)N[C@@H]1CC[C@@H]1[C@@H]2CC[C@]2(C)[C@@H](C(=O)Nc3cc(C(F)(F)F)ccc3C(F)(F)F)CC[C@@H]12` [Dutasteride, reference compound] yielded an IC50 greater than 100 µM.
For the compound `CC(C)=CCc1c(-c2ccc(O)cc2O)oc2c([C@H]3C=C(C)C[C@@H](c4ccc(O)cc4O)[C@@H]3C(=O)c3ccc(O)cc3O)c(O)cc(O)c2c1=O` [Kuwanon G], the IC50 under setting [1] came to 41 ± 6.18 µM.
On the same count and under the same terms, in the case of `CO[C@H]1/C=C/O[C@@]2(C)Oc3c(C)c(O)c4c(c3C2=O)C(=O)C(N2CCCC2)=C(NC(=O)/C(C)=C\C=C\[C@H](C)[C@H](O)[C@@H](C)[C@H](O)[C@H](C)[C@H](O)[C@@H]1C)C4=O` [(7S,9E,11S,12S,13S,14S,15S,16R,17S,18S,19E,21Z)-2,13,15,17-tetrahydroxy-11-methoxy-3,7,12,14,16,18,22-heptamethyl-26-pyrrolidin-1-yl-8,30-dioxa-24-azatetracyclo[23.3.1.14,7.05,28]triaconta-1(28),2,4,9,19,21,25-heptaene-6,23,27,29-tetrone] it was 46.1 ± 15.6 µM.
For `C[C@H]1[C@H](C)CC[C@]2(C(=O)O)CC[C@]3(C)C(=CC[C@@H]4[C@@]5(C)CCC(=O)C(C)(C)[C@@H]5CC[C@]43C)[C@H]12` [Ursonic acid], the IC50 is 26.5 ± 12.6 µM.
`CC(C)(O)CC[C@H]1OC(C)(C)O[C@]1(C)[C@H]1CC[C@@]2(O)C3=CC(=O)[C@@H]4C[C@@H](O)[C@@H](O)C[C@]4(C)[C@H]3CC[C@]12C` [20-Hydroxyecdysone 20,22-acetonide]: the IC50 under setting [1] was greater than 100 µM.
On the same count and under the same terms, in the case of `CC1(C)CC[C@]2(C(=O)O)CCC3=C([C@@H](CCl)C[C@@H]4[C@@]5(C)C[C@H](O)[C@H](O)[C@@](C)(C(=O)O)[C@@H]5CC[C@@]34C)[C@@H]2C1` [Senegenin] it was greater than 100 µM.
The compound `Cc1cc(Nc2ncnc3ccc(NC4=NC(C)(C)CO4)cc23)ccc1Oc1ccn2ncnc2c1` [Tucatinib, reference compound] had an IC50 under setting [2] greater than 100 µM.
Consider `O=C(c1cccc(-c2nc3ccccc3[nH]2)n1)N1CCN(C(=O)c2cccc(-c3nc4ccccc4[nH]3)n2)CC1` [Omilancor, reference compound], for which the IC50 was greater than 100 µM.
As for `CC(C)CC(=O)Nc1cncc(-c2ccc3[nH]nc(-c4nc5c(-c6cccc(F)c6)cncc5[nH]4)c3c2)c1` [Adavivint, reference compound], the IC50 under setting [2] is greater than 100 µM.
`Nc1nc(Nc2ccc3c(c2)CC[C@@H](N2CCCC2)CC3)nn1-c1cc2c(nn1)-c1ccccc1CCC2` [Bemcentinib, reference compound] registered an IC50 under setting [2] of 18.5 ± 3.41 µM.
Turning to `C=C(C)[C@@H]1CC[C@]2(C=O)CC[C@]3(C)[C@H](CC[C@@H]4[C@@]5(C)CC[C@H](O)C(C)(C)[C@@H]5CC[C@]43C)[C@@H]12` [Betulinaldehyde], the IC50 is greater than 100 µM.
`C[C@H]1CN(C2COC2)CCN1c1ccc(Nc2cc(-c3ccnc(N4CCn5c(cc6c5CC(C)(C)C6)C4=O)c3CO)cn(C)c2=O)nc1` [Fenebrutinib, reference compound] showed an IC50 under setting [2] greater than 100 µM.
The compound `C=C(C)[C@@H]1CC[C@]2(C)CC[C@]3(C)[C@H](CC[C@@H]4[C@@]5(C)CCC(=O)C(C)(C)[C@@H]5CC[C@]43C)[C@@H]12` [Lupenone] had an IC50 greater than 100 µM.
In the case of `CC1(C)[C@@H](O)CC[C@]2(C)[C@H]3CC=C4[C@@H]5C[C@@]6(C)C[C@H](OC6=O)[C@]5(C)CC[C@@]4(C)[C@]3(C)CC[C@@H]12` [Wilforlide A], under setting [1], the IC50 was greater than 100 µM.
The same measure, in the same setting: for Dryocrassin ABBA the value was 14.5 ± 5.46 µM.
Regarding `C[C@H]1O[C@@H](O[C@H]2CC[C@@]3(C)[C@@H](CC[C@]4(C)[C@@H]3C=CC3=C5CC(C)(C)CC[C@]5(CO)[C@H](O)C[C@]34C)[C@]2(C)CO)[C@H](O)[C@@H](O[C@@H]2O[C@H](CO)[C@@H](O)[C@H](O)[C@H]2O)[C@H]1O` [Saikosaponin B2], the IC50 under setting [1] came to 54.6 ± 13.6 µM.
In the case of `CC(C)(O)/C=C/C(=O)[C@](C)(O)[C@H]1[C@H](O)C[C@@]2(C)[C@@H]3CC=C4[C@@H](C[C@H](O)C(=O)C4(C)C)[C@]3(C)C(=O)C[C@]12C` [Cucurbitacin D], the IC50 was greater than 100 µM.
On the same count and under the same terms, for `C[C@H]1[C@H](C)CC[C@]2(C(=O)O)CC[C@]3(C)C(=CC[C@@H]4[C@@]5(C)C[C@@H](O)[C@H](O)C(C)(C)[C@@H]5CC[C@]43C)[C@H]12` [Corosolic acid, reference compound] the value was greater than 100 µM; for `C=C(CC[C@@H](C(=O)O)[C@H]1[C@H](O)C[C@@]2(C)C3=C(CC[C@]12C)[C@@]1(C)CC[C@H](OC(C)=O)C(C)(C)[C@@H]1CC3)C(C)C` [Pachymic acid], greater than 100 µM.
As to `CC(C)=CCCC(C(=O)O)C1CCC2(C)C3=C(CCC12C)C1(C)CCC(=O)C(C)(C)C1CC3` (stereo not drawn) [3-Dehydrotrametenolic acid], the IC50 under setting [1] was greater than 100 µM.
Still for that read-out and setting: for `Cc1ccccc1NC(=O)Nc1ccc(CN2C(=O)N([C@@H](CC(C)C)C(=O)N[C@@H](CC(=O)O)c3ccccc3)C(=O)C2(C)C)cc1` [HMR1031, reference compound] the value was 91.2 ± 4.88 µM.
In turn, `Cc1cnc(C(=O)N[C@H]2CCCCC/C=C\[C@@H]3C[C@@]3(C(=O)NS(=O)(=O)C3CC3)NC(=O)[C@@H]3C[C@@H](Oc4nc5ccccc5c5ccccc45)CN3C2=O)cn1` [Paritaprevir, reference compound] came in with an IC50 under setting [2] of 42.2 ± 9.97 µM.
Compound `CC(C)=CC/C=C(\C)[C@H]1CC[C@]2(C)[C@@H]1[C@H](O)C[C@@H]1[C@@]3(C)CC[C@H](O[C@@H]4O[C@H](CO)[C@@H](O)[C@H](O)[C@H]4O[C@@H]4O[C@H](CO)[C@@H](O)[C@H](O)[C@H]4O)C(C)(C)[C@@H]3CC[C@]12C` [Ginsenoside Rg5] registered an IC50 greater than 100 µM.
`CS(=O)(=O)c1cccc(C[C@H](NC(=O)c2c(Cl)cc3c(c2Cl)CCN(C(=O)c2ccc4ccoc4c2)C3)C(=O)O)c1` [Lifitegrast, reference compound] returned an IC50 under setting [2] greater than 100 µM.
On the same count and under the same terms, in the case of `Cc1c(-c2c(F)cc(C(N)=O)c3[nH]c4c(c23)CC[C@H](C(C)(C)O)C4)cccc1-n1c(=O)c2cccc(F)c2n(C)c1=O` [BMS-986142, reference compound] it was 22.8 ± 3.63 µM.
The compound `C[C@H]1[C@H](C)CC[C@]2(C(=O)O)CC[C@]3(C)C(=CC[C@@H]4[C@@]5(C)C[C@@H](O)[C@H](O)[C@@](C)(CO)[C@@H]5[C@H](O)C[C@]43C)[C@H]12` [Madecassic Acid] displayed an IC50 greater than 100 µM.
In the case of `CC1(C)CC[C@]2(C)CC[C@]3(C)C(=CC[C@@H]4[C@@]5(C)CC[C@@H](O)[C@](C)(C(=O)O)[C@@H]5CC[C@]43C)[C@@H]2C1` [Alpha-Boswellic acid], the IC50 under setting [1] was 93.5 ± 9.14 µM.
The compound `Cc1ccc(C(=O)Nc2ccc(Oc3cc4cnn(C)c4cc3-c3cn[nH]c3)c(F)c2)c(=O)n1-c1ccc(F)cc1` [Merestinib, reference compound] gave an IC50 under setting [2] greater than 100 µM.
Regarding `CC(C)=CCC[C@@](C)(O)[C@H]1CC[C@]2(C)[C@@H]1[C@H](O)C[C@@H]1[C@@]3(C)CC[C@H](O[C@@H]4O[C@H](CO)[C@@H](O)[C@H](O)[C@H]4O)C(C)(C)[C@@H]3CC[C@]12C` [20(R)-Ginsenoside Rh2], under setting [1], the IC50 is greater than 100 µM.
